In general, IC50 refers to the concentration needed to halve the response being measured.

Test [1] deals with TrxR (SH-SY5Y cell lysate). The test is described as follows: Colorimetric detection of cell lysate TrxR activity (DTNB). Type of test: biochemical, human. Conditions: positive control, 20 µM, DTNB absorbance over 20 min. The text has this:
We further analyzed the potential of adamantane–sclareol hybrids to inhibit TrxR enzyme activity using a colorimetric assay for the detection of TrxR activity in cell lysates. This kinetic assay is based on the ability of TrxR to reduce its substrate 5,5ʹ-dithiobis(2-nitrobenzoic acid) (DTNB) to the yellow product 5-thio-2-nitrobenzoic acid (TNB) in the presence of NADPH. The absorbance of the produced TNB is considered equivalent to the enzymic activity of TrxR. In the kinetic assay, the absorbance of DTNB was measured over 20 min, resulting in a curve showing the dependence of absorbance on time.
TrxR enzyme activity in cell lysate was determined by the reduction of the TrxR substrate DTNB to the yellow product TNB in the presence of NADPH (Acros Organics, Thermo Fisher Scientific, Waltham, MA, USA). Lysate from human neuroblastoma SH-SY5Y cells was used for the TrxR assay. SH-SY5Y cells were grown to 80% confluence, washed twice with PBS, and detached using Hanks-based enzyme-free dissociation solution (Millipore, Billeri-ca, MA, USA). Collected cells were centrifuged at 2000 rpm for 3 min and rinsed in PBS buffer. After additional centrifugation, cells were lysed on ice using Lysis Buffer (50 mM Tris, 150 mM NaCl, 1 mM EDTA, 1% NP40, 0.1% SDS, 0.5% Na-deoxycholate, pH 7.8) containing protease inhibitor mix G (SERVA Electrophoresis GmbH, Heidelberg, Germany) and phosphatase inhibitor cocktail 3 (Sigma-Aldrich, Darmstadt, Germany). The cell lysates were centrifuged at 16,000× g for 15 min at 4 °C. The protein concentrations of the supernatants were determined using a Pierce^TM BCA protein assay kit (Thermo Fisher Scientific, Waltham, MA, USA). The reactions were run in 96-well plates, in a final volume of 100 μL, in 50 mM potassium phosphate buffer (pH 7.0) containing 50 μg of cell lysate proteins, 1 mM EDTA, 50 mM KCl, 0.2 mg/mL BSA, and 0.25 mM NADPH. […] Enzyme kinetics were monitored on an automated microplate reader (MultiskanSky, Thermo Fisher Scientific, Waltham, MA, USA) by measuring the increase in absorbance at 412 nm for 20 min. […]

In test [2] the test system is H2O2 and peroxynitrite anion levels in U87-TxR cells. The test is described as follows: ROS detection by DHR, U87-TxR. Type of test: cell-based, human. Conditions: 10 µM. How it is done: The levels of ROS were measured in U87 and U87-TxR cells by flow cytometry. The production of superoxide anions was detected using DHE fluorescence dye, while production of H2O2 and peroxynitrite anions was detected using DHR fluorescence dye. Cells were seeded in 6-well plates (150,000 cell/well) and incubated overnight. The cells were then treated with compounds 2 or 5 (4 μM) for 24 h and 48 h. CDDP (10 μM) was used as a positive control. After the treatment period, the cells were stained with DHE or DHR for 30 min in the dark. Following incubation, cells were harvested with trypsinization and washed twice in cold phosphate buffer solution (PBS). Fluorescence was measured on a CytoFlex flow cytometer (Beckman Coulter, Indianapolis, IN, USA). Green fluorescence from the oxidized DHR dye was detected at 525 nm, while the red fluorescence from ethidium derived from DHE was detected at 585 nm. At least 10,000 events were assayed for each sample. The results were analyzed by CytExpert 2.4.0.28 software (Beckman Coulter, Indianapolis, IN, USA).

The next test has as its system SVG p12 cells. The test is described as follows: MTT cell viability assay, SVG p12. Format: cell-based, human. Conditions: for IC50: Homo sapiens, SVGp12, 72 h treatment, MTT, normal glial cell line; for Selectivity Index: IC50 SVG p12 vs average IC50 in A-172, U87 and U87-TxR. How it is done:
(§1) Cell viability was measured using the colorimetric MTT assay based on the reduction of MTT into formazan dye. Cell lines were seeded into 96-well cell culture plates (4000 cells/well) in appropriate medium. After overnight incubation, cells were treated with increasing concentrations of 1, 2, 3, 4, 5, and 6 (0.5, 1, 2, 4, and 8 µM). After 72 h treatment, MTT solution (4 mg/mL) was added and plates were incubated at 37 °C with 5% CO2 for 3 h. After incubation, formazan crystals were dissolved using 100 µL DMSO, resulting in a purple color. The absorbance was measured at 570 nm with a reference wavelength of 690 nm using an automated microplate reader (MultiskanSky, Thermo Scientific, USA). The IC50 values were determined by non-linear regression analysis in GraphPad Prism 8.0.2. software (GraphPad Software, Boston, MA, USA).
A general note: Tetrazolium assays rely on reduction of a dye to a coloured formazan, in cell work by metabolically active cells.

For test [3], the system named is U87-TxR cells. The test is described as follows: Cell death detection, AV/PI staining, U87-TxR. Conditions: 48 h; for cell death effect in MDR U87-TxR cells vs sensitive U87 cells: 4 µM, AV/PI; for percentage of early apoptotic cells vs untreated: 2 µM and 4 µM, particularly at 4 µM. Format: cell-based, human. On the procedure: To evaluate the extent of cell death upon treatment with adamantane–sclareol hybrids, apoptotic, necrotic, and viable cell populations were assessed using dual staining with AV/PI. U87 and U87-TxR cells were seeded in 6-well plates at a density of 150,000 cells per well and incubated overnight. Subsequently, cells were treated with 2 and 5 (2 µM and 4 µM) for 48 h. At the end of the treatment period, cells were collected (both adherent and floating), washed, and incubated with AV/PI in binding buffer. Samples were analyzed using a CytoFLEX flow cytometer (Beckman Coulter, Indianapolis, IN, USA), with fluorescence signals detected at 525 nm (AV) and 585 nm (PI). At least 10,000 events were recorded per each condition. The percentages of viable (AV^− PI^−), early apoptotic (AV^+ PI^−), late apoptotic (AV^+ PI^+), and necrotic (AV^− PI^+) cells were calculated using CytExpert 2.4.0.28 software (Beckman Coulter, Indianapolis, IN, USA).

For test [4], the system named is U87-TxR cells. The test is described as follows: MTT cell viability assay, U87-TxR. Conditions: for IC50: Homo sapiens, U87-TxR, 72 h treatment, MTT, MDR cell line; for Relative Resistance Factor: ratio of IC50 values U87-TxR / U87. Format: cell-based, human. On the procedure:
as §1

The next test deals with U87 cells. The test is described as follows: MTT cell viability assay, U87. Type of test: cell-based. Conditions: Homo sapiens, U-87 MG, 72 h treatment. On the procedure:
as §1

The test system of the next test is A-172 cells. The test is described as follows: MTT cell viability assay, A-172. Conditions: Homo sapiens, 72 h treatment. Format: cell-based. How it is done: as §1
Test [5] relates to U87-TxR cells. The test is described as follows: Combination with PTX, MTT assay. Conditions: Homo sapiens, U87-TxR; PTX alone, 72 h. Format: cell-based, human. On the procedure: as §1
The combined effects of 2 and 5 with PTX were studied in U87-TxR cells by MTT assay as previously described. In simultaneous treatments that lasted 72 h, three concentrations of 2 and 5 (0.5, 1, and 2 µM) were combined with three concentrations of PTX (0.1 μM, 0.2 μM, and 0.5 μM). Drug combination effects were evaluated using the Chou–Talalay method, which calculates the combination index (CI) value for the degree of interaction between the drugs. This method allows quantitative assessment of synergism (CI < 1), additivity (CI close to 1), or antagonism (CI > 1) across a range of dose–effect relationships. Calcusyn® version 1.1 software was used for data analysis (Biosoft, Cambridge UK). Three data points were used for each single drug in each designed experiment. The non-constant ratio combination was chosen to assess the effect of both drugs in combination. The results are presented in a fraction-affected CI graph.

For test [6], the system named is mitochondrial membrane potential in U87 and U87-TxR cells. The test is described as follows: TMRE mitochondrial membrane potential. Type of test: cell-based, human. Conditions: 10 µM, added 30 min before staining. How it is done:
The cell-permeable fluorescent dye TMRE was used to evaluate mitochondrial membrane potential. TMRE selectively accumulates in active mitochondria with intact membrane potential. […] U87 and U87-TxR cells were seeded in 6-well plates at a density of 150,000 cells per well. After 24 h, cells were treated with 2 and 5 (4 µM) and incubated for an additional 24 h. After treatment, cells were trypsinized, resuspended in complete medium containing 500 nM TMRE, and incubated for 30 min at 37 °C in the dark. CCCP (10 µM) was used as a positive control for mitochondrial depolarization and added 30 min before staining. For each sample, at least 10,000 events were collected. TMRE was detected at […]. The results were calculated using CytExpert 2.4.0.28 software (Beckman Coulter, Indianapolis, IN, USA).

As to `O=C(O)CC([S-])C(=O)O.[Au+]` (stereo not drawn) [ATM, aurothiomalate, reference compound], in test [1], the TrxR enzyme activity result is “inhibited TrxR activity”.

In the case of `[NH2][Pt]([NH2])([Cl])[Cl]` [CDDP, Cisplatin, reference compound], the “positive control effect on ROS, U87-TxR vs U87” value in test [2] is “more potent effects in MDR U87-TxR cells”.

Take `CC1(C)CCC[C@]2(C)[C@@H](CC[C@@](C)(O)/C=C/c3ccc(CNCCCCCCNCC45CC6CC(CC(C6)C4)C5)s3)[C@](C)(O)CC[C@@H]12` [Compound 1]: the IC50 is 5330 ± 132 nM in the test on SVG p12 cells, 2080 ± 37 nM in the test with U87-TxR cells [4], 2400 ± 61 nM in the test with U87 cells and 2470 ± 36 nM in the test on A-172 cells. Further, in the test with SVG p12 cells, the “Selectivity Index” value is recorded as 2.300 ^S. For the same molecule, in the test on U87-TxR cells [3], the “cell death effect in MDR U87-TxR cells vs sensitive U87 cells” value (from here on “cell death effect … vs sensitive U87 cells”) is “significantly better effects in MDR U87-TxR cells”. Moreover, the “Relative Resistance Factor” value in the test on U87-TxR cells [4] was determined as 0.869.

Turning to `CC1(C)CCC[C@]2(C)[C@@H](CC[C@@](C)(O)/C=C/c3ccc(CNCCCCCCNCCC45CC6CC(CC(C6)C4)C5)s3)[C@](C)(O)CC[C@@H]12` [Compound 3], in the test on SVG p12 cells, the IC50 was 9290 ± 169 nM and the “Selectivity Index” value is 3.541 ^S. In the test on U87-TxR cells [3], the “cell death effect … vs sensitive U87 cells” value is “significantly better effects in MDR U87-TxR cells” and the “percentage of early apoptotic cells vs untreated” value is reported as “significant increase”. Besides, in the test with U87-TxR cells [4], half-maximal inhibition (IC50) required 2310 ± 52 nM and the “Relative Resistance Factor” value came out at 1.049. The molecule also displayed an IC50 in the test with U87 cells of 2200 ± 52 nM. In the test on A-172 cells, the IC50 turned out to be 3360 ± 57 nM.

Consider `CC1(C)CCC[C@]2(C)[C@@H](CC[C@@](C)(O)/C=C/c3ccc(CNCCCCCCNCC45CC6CC(CC(C6)C4)C5)o3)[C@](C)(O)CC[C@@H]12` [Compound 4], for which, in the test on SVG p12 cells, the IC50 was 918 ± 22 nM and the “Selectivity Index” value came out at 0.686. In the test with U87-TxR cells [3], the “cell death effect … vs sensitive U87 cells” value is listed as “significantly better effects in MDR U87-TxR cells” and the “percentage of early apoptotic cells vs untreated” value was “significant increase”. In the test on U87-TxR cells [3] (untreated cells 4.17%, Figure S3), the “early apoptotic population (AV+ PI−)” value is reported as 26.84%. Besides, in the test with U87-TxR cells [4], the IC50 stood at 1460 ± 27 nM and the “Relative Resistance Factor” value is listed as 1.160. The same molecule gave a half-maximal inhibitory concentration (IC50) in the test on U87 cells of 1250 ± 36 nM. Further, the concentration for half-maximal inhibition (IC50) in the test on A-172 cells amounted to 1380 ± 18 nM.

Consider `CC1(C)CCC[C@]2(C)[C@@H](CC[C@@](C)(O)/C=C/c3ccc(CNCCCCCCNCCC45CC6CC(CC(C6)C4)C5)o3)[C@](C)(O)CC[C@@H]12` [Compound 6], for which the IC50 with SVG p12 cells came out at 1160 ± 27 nM; with U87-TxR cells [4], 1910 ± 46 nM; with U87 cells, 2470 ± 66 nM; with A-172 cells, 2000 ± 26 nM. Besides, the “Selectivity Index” value with SVG p12 cells came out at 0.547.

Take `CC(=O)O[C@H]1C(=O)[C@@]2(C)[C@H]([C@H](OC(=O)c3ccccc3)[C@]3(O)C[C@H](OC(=O)[C@H](O)[C@@H](NC(=O)c4ccccc4)c4ccccc4)C(C)=C1C3(C)C)[C@]1(OC(C)=O)CO[C@@H]1C[C@@H]2O` [PTX, paclitaxel, reference compound]: the concentration for half-maximal inhibition (IC50) with U87-TxR cells [5] came to 688 ± 22 nM.

“Carbonyl cyanide m-chlorophenyl hydrazine [CCCP, reference compound]”: the “positive control effect on mitochondrial membrane potential, U87-TxR vs U87” value in test [6] is given as “more potent effects in MDR U87-TxR cells”.

The values above are taken from article PMC12735718, “Novel Adamantane–Sclareol Hybrids Exploit ROS Vulnerability to Overcome Multidrug-Resistance in Glioblastoma Cells” (Molecules, 2025).
